Reference: ChEMBL document CHEMBL1133517, “Design, radiosynthesis, and biodistribution of a new potent and selective ligand for in vivo imaging of the adenosine A(2A) receptor system using positron emission tomography” (J Med Chem, 2000)

Columns and labels:
Adenosine receptor A3 [1] = target: T1, Adenosine receptor A3 (Homo sapiens, UniProt P0DMS8); test: Displacement of [125I]AB-MECA from human adenosine A3 receptor expressed in HEK293 cells; assay type: cell-based
T1 sequence (P0DMS8 whole entry): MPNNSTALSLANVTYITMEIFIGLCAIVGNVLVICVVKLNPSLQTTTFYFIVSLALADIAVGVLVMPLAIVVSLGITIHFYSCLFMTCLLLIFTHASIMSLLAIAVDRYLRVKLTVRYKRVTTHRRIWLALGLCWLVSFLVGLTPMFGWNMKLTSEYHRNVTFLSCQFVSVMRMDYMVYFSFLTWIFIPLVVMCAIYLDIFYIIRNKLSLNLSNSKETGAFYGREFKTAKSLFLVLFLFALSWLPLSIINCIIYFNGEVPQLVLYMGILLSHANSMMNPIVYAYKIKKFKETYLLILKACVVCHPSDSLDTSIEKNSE

Adenosine receptor A1 [2] = target: T2, Adenosine receptor A1 (Homo sapiens, UniProt P30542); test: Inhibitory activity against human adenosine A1 receptor expressed in CHO cells by displacement of [3H]DPCPX; assay type: cell-based
T2 sequence (P30542 whole entry): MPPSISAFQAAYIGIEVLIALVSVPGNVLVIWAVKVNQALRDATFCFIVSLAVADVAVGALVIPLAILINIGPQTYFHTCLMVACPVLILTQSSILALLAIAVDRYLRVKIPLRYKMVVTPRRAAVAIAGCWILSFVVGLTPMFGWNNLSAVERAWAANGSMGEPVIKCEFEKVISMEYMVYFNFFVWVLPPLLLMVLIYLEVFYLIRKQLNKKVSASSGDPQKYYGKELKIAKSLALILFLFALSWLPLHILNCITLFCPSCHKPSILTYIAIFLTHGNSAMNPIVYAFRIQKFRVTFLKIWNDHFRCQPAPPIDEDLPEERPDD

Adenosine receptor A1 [3] = target: T3, Adenosine receptor A1 (Rattus norvegicus, UniProt P25099); test: Displacement of [3H]DPCPX from adenosine A1 receptor in rat brain membranes; assay type: cell membranes
T3 sequence (P25099 whole entry): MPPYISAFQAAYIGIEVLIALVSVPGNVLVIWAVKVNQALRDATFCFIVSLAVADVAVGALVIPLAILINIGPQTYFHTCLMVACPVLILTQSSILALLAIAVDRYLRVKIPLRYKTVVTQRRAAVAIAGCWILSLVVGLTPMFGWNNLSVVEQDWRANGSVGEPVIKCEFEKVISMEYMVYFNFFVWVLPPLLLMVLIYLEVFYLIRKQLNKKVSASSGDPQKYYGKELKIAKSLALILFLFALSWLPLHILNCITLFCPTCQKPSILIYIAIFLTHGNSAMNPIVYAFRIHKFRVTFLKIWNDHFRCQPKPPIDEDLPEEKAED

Adenosine receptor A3 [4] = target: T4, Adenosine receptor A3 (Rattus norvegicus, UniProt P28647); test: Inhibitory activity against rat adenosine A3 receptor expressed in HEK293 cells by displacement of [125I]AB-MECA; assay type: cell-based
T4 sequence (P28647 whole entry): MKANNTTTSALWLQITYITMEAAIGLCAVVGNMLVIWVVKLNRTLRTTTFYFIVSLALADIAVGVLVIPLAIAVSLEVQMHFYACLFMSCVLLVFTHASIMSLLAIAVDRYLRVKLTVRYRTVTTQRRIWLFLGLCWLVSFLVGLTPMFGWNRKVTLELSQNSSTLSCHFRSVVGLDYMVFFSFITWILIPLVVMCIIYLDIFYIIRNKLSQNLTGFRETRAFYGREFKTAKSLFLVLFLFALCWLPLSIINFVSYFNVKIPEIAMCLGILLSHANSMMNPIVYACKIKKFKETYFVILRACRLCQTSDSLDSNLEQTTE

Adenosine receptor A2b = target: T5, Adenosine receptor A2b (Homo sapiens, UniProt P29275); test: Inhibitory activity against human adenosine A2B receptor expressed in HEK293 cells by displacement of [3H]DPCPX; assay type: cell-based
T5 sequence (P29275 whole entry): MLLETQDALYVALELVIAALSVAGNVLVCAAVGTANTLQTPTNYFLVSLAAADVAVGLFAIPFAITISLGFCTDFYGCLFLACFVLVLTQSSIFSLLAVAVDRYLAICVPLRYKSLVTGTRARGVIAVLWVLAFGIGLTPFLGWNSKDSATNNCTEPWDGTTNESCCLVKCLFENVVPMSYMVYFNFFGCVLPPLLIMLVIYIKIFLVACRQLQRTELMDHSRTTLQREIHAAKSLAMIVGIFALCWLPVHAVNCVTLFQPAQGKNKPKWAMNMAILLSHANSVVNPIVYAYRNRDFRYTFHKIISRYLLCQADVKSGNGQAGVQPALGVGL

Ki (Adenosine receptor A3 [1]): > 10 µM | Ki (Adenosine receptor A1 [2]): 1.11 µM | Ki (Adenosine receptor A1 [3]): 1.81 µM | Ki (Adenosine receptor A3 [4]): > 10 µM | Ki (Adenosine receptor A2b): > 10 µM
Structure (SMILES): COc1ccc(CCCn2ncc3c2nc(N)n2nc(-c4ccco4)nc32)cc1
